Like-named read-outs stand apart in the source and are kept apart here.
How the values were obtained:
adult worms [1] = assay: Pairing and egg laying of adult worms; assay type: cell-based, Schistosoma mansoni; conditions: for eggs' number: 20 μM
Protocol: Selected compounds 2, 15, 18, and 19 were tested on adult worms to evaluate their effects on pairing and egg laying.

[2] = MTT cytotoxicity in MRC-5 cells; assay type: cell-based; conditions: human, MRC-5 lung diploid fibroblast cells; for viability at 72 h, 5 µM / viability at 72 h, 10 µM / viability at 72 h, 25 µM / viability at 72 h, 50 µM: read-out: percentage of viability, 72 h; for IC50 at 72 h: read-out: IC50 (cell viability)
Protocol: (§1) The MTT method was used to evaluate cell viability after 72 h of treatment.
(§2) Human commercial lung diploid fibroblasts (MRC-5), and diploid retinal epithelium cells (RPE) were obtained from the American Type Culture Collection (ATCC) and kindly provided by Dr Francesca Degrassi (CNR IBPM) and maintained in minimal essential medium or DMEM-F12 medium supplemented with fetal calf serum, antibiotics, and nonessential amino acids. Cells were grown at 37 °C, in a humidified atmosphere, with 5% CO2. For experiments, cells were seeded in 200 μL of complete in each well of a 96-well microtiter plate. After 24 h, compounds were added at 5, 10, 25, and 50 μM for 72 h in sextuplicate. MTT was added (0.5 mg/mL), incubated for 4 h at 37 °C, and dissolved in 200 μL of isopropyl alcohol. Absorbance was measured at 570 nm (ELISA reader, DASIT), and cell viability was calculated as viability=(ODoftreatedcells/ODofcontrolcells)×100

[3] = molecular target: T1, human LSD1-CoREST complex (Homo sapiens, UniProt O60341); assay: ThermoFAD thermal stability assay; assay type: binding; conditions: for ΔTm: LSD1-CoREST thermal stability
T1 construct: made in house
Protocol: Compounds 14–22 were tested against the human LSD1-CoREST complex to determine their inhibitory activity. […] ThermoFAD assays were then performed to assess the impact of 14–22 on the thermal stability (ΔT m values, Table ) of the LSD1-CoREST complex. The most significant shifts in Tm values corresponded to the strongest binders. […] Compound 22 was not tested, considering its previous negative results.
Protein expression, thermal stability, and inhibition of human LSD1-CoREST were performed using established protocols. […] LSD1-CoREST (0.4 μM) was preincubated with the inhibitor at 25 °C for 10 min in the presence of 5% DMSO. The reaction was initiated by adding an equal volume of the substrate solution to the enzyme–inhibitor mixture, and resorufin fluorescence (excitation at 530–570 nm and emission at 580–590 nm) was detected with a Clariostar plate reader.

[4] = molecular target: T1, human LSD1-CoREST complex; assay: HRP-coupled LSD1 inhibition assay; assay type: biochemical; conditions: 10 min preincubation; for IC50: read-out: IC50 (hLSD1 direct inhibition)
Protocol: Protein expression, thermal stability, and inhibition of human LSD1-CoREST were performed using established protocols. […] The reaction was initiated by adding an equal volume of the substrate solution to the enzyme–inhibitor mixture, and resorufin fluorescence (excitation at 530–570 nm and emission at 580–590 nm) was detected with a Clariostar plate reader.

NTS = assay: Speed-of-action assay in NTS; assay type: cell-based, Schistosoma mansoni
Description: (§3) To better characterize a selection of our LSD1i in vitro, we assessed the onset of their action, defined as the time required for an observable antischistosomal effect. […] For detailed percentages of activity at each time point, refer to the Supporting Information (Tables S2 and S3 in Supporting Information).

[5] = system: newly transformed schistosomula (NTS); assay: NTS viability phenotypic screening, 72 h; conditions: for IC50: Schistosoma mansoni, read-out: IC50 (NTS viability)
Protocol: (§4) For NTS and adult worms, transparent flat-bottom 96- and 24-well plates were used, respectively (Sarstedt, Switzerland). For juvenile worms, 48-well plates were used with 3–6 worms per plate and RPMI medium with 5% FCS and 1% penicillin/streptomycin. Compounds were initially tested at 20 and 10 μM in triplicate on NTS and repeated once; each well contained 30–40 NTS. Phenotypic reference points such as motility, morphology, and granularity were used to score incubated parasites’ overall viability (scores from 0 to 3). […] Identified hits from the NTS screening were tested on adult worms. […] The experiment was conducted in duplicate and repeated; standard deviations were calculated from two wells. […] For all in vitro assays, negative controls (DMSO at the highest tested concentration) were included.

[6] = system: S. mansoni juvenile forms; assay: Speed-of-action assay in juvenile forms; assay type: cell-based, Schistosoma mansoni
Description: as §3

[7] = MTT cytotoxicity in RPE cells; assay type: cell-based; conditions: human, retinal pigment epithelial (RPE) cells; for viability at 72 h, 5 µM / viability at 72 h, 10 µM / viability at 72 h, 25 µM / viability at 72 h, 50 µM: read-out: percentage of viability, 72 h; for IC50 at 72 h: read-out: IC50 (cell viability)
Protocol: as §1, §2

adult worms [8] = assay: Adult worm viability phenotypic assay, 72 h; conditions: Schistosoma mansoni, read-out: IC50 (adult worm viability)
Protocol: The life cycle is maintained at the Swiss TPH as described previously. Cercariae were obtained from infected snails by exposing them to a strong light source for 3–4 h in pond water.
as §4

[9] = molecular target: T1, human LSD1-CoREST complex; assay: Spectrophotometric analysis of flavin cofactor bleaching; assay type: biochemical
juvenile and adult worms = system: juvenile and adult worms; design: method as in earlier work of the authors (number not given); conditions: ref earlier work of the authors (number not given); cited from earlier work
[10] = molecular target: T1, human LSD1-CoREST complex; design: method as in footnote c (number not given); conditions: positive control; ref footnote c (number not given); read-out: IC50 (hLSD1 direct inhibition); cited from earlier work

## Cl.NC1CC1c1ccc(NC(=O)c2ccc(C#CC3CC3)cc2)cc1 (centres unmarked) [Compound 19, N-(4-(2-Aminocyclopropyl)phenyl)-4-(cyclopropylethynyl)benzamide Hydrochloride]
Adult worms [1]; 4 h
  eggs' number: 0
Adult worms [1]; 8 h
  eggs' number: 0
Adult worms [1]; 24 h
  eggs' number: 0
Adult worms [1]; 48 h
  eggs' number: 0
Adult worms [1]; 72 h
  eggs' number: 5
Adult worms [1]; adult worms
  effect on worm pairing: no impact on worm pairing
[2]
  viability at 72 h, 5 µM: 98 ± 20%
  viability at 72 h, 10 µM: 88 ± 18%
  viability at 72 h, 25 µM: 85 ± 8%
  viability at 72 h, 50 µM: 85 ± 35%
  IC50 at 72 h: > 100 µM
[3]
  ΔTm: +8 °C
[4]
  IC50: 0.02 ± 0.001 µM
NTS; NTS, 4 h, 10 μM
  Percentage of effect: 30.77%
NTS; NTS, 4 h, 20 μM
  Percentage of effect: 38.46%
NTS; NTS, 24 h, 10 μM
  Percentage of effect: 48.21%
NTS; NTS, 24 h, 20 μM
  Percentage of effect: 78.57%
NTS; NTS, 48 h, 10 μM
  Percentage of effect: 87.76%
NTS; NTS, 48 h, 20 μM
  Percentage of effect: 100%
NTS; NTS, 72 h, 10 μM
  Percentage of effect: 93.88%
NTS; NTS, 72 h, 20 μM
  Percentage of effect: 100%
NTS; Schistosoma mansoni, 4 h; read-out: IC50 (speed of action, NTS)
  IC50: > 20 µM
NTS; Schistosoma mansoni, 24 h; read-out: IC50 (speed of action, NTS)
  IC50: 10.4 µM
NTS; Schistosoma mansoni, 48 h; read-out: IC50 (speed of action, NTS)
  IC50: 8.3 µM
NTS; Schistosoma mansoni, 72 h; read-out: IC50 (speed of action, NTS)
  IC50: 7.5 µM
[5]; 1 μM
  Percentage of reduction of NTS viability, 72 h: 22.6 ± 1.9%
[5]; 10 μM
  Percentage of reduction of NTS viability, 72 h: 100 ± 0.0%
[5]; 20 μM
  Percentage of reduction of NTS viability, 72 h: 100 ± 0.0%
[5]
  IC50: 1.27 µM
[6]; Schistosoma mansoni, 4 h; read-out: IC50 (speed of action, juvenile forms)
  IC50: > 20 µM
[6]; Schistosoma mansoni, 24 h; read-out: IC50 (speed of action, juvenile forms)
  IC50: > 20 µM
[6]; Schistosoma mansoni, 48 h; read-out: IC50 (speed of action, juvenile forms)
  IC50: > 20 µM
[6]; Schistosoma mansoni, 72 h; read-out: IC50 (speed of action, juvenile forms)
  IC50: 2.7 µM
[6]; juvenile forms, 4 h, 1 μM
  Percentage of effect: 20%
[6]; juvenile forms, 4 h, 10 μM
  Percentage of effect: 20%
[6]; juvenile forms, 4 h, 20 μM
  Percentage of effect: 41.82%
[6]; juvenile forms, 24 h, 1 μM
  Percentage of effect: 27.59%
[6]; juvenile forms, 24 h, 10 μM
  Percentage of effect: 34.48%
[6]; juvenile forms, 24 h, 20 μM
  Percentage of effect: 40.38%
[6]; juvenile forms, 48 h, 1 μM
  Percentage of effect: 36.54%
[6]; juvenile forms, 48 h, 10 μM
  Percentage of effect: 46.15%
[6]; juvenile forms, 48 h, 20 μM
  Percentage of effect: 47.92%
[6]; juvenile forms, 72 h, 1 μM
  Percentage of effect: 43.03%
[6]; juvenile forms, 72 h, 10 μM
  Percentage of effect: 46.73%
[6]; juvenile forms, 72 h, 20 μM
  Percentage of effect: 81.25%
[7]
  viability at 72 h, 5 µM: 92 ± 26%
  viability at 72 h, 10 µM: 89 ± 35%
  viability at 72 h, 25 µM: 98 ± 21%
  viability at 72 h, 50 µM: 103 ± 20%
  IC50 at 72 h: > 100 µM
Adult worms [8]
  IC50: > 10 µM

## CC#Cc1ccc(C(=O)Nc2cccc(C3CC3N)c2)cc1.Cl (centres unmarked) [Compound 21, N-(3-(2-Aminocyclopropyl)phenyl)-4-(prop-1-yn-1-yl)benzamide Hydrochloride]
[3]
  thermal shift compared to the control: no thermal shift
  ΔTm: 0 °C
[4]
  IC50 (hLSD1 direct inhibition): inactive
  IC50: > 100 µM
[9]
  bleaching of the flavin cofactor: no bleaching

## Cl.NC1CC1c1cccc(NC(=O)c2ccc(C#CC3CC3)cc2)c1 (centres unmarked) [Compound 22, N-(3-(2-Aminocyclopropyl)phenyl)-4-(cyclopropylethynyl)benzamide Hydrochloride]
[3]
  thermal shift compared to the control: no thermal shift
  ΔTm: 0 °C
[9]
  bleaching of the flavin cofactor: no bleaching

## C#Cc1ccc(C(=O)Nc2ccc(C3CC3N)cc2)cc1 (centres unmarked) [MC3935, reference compound]
[2]
  viability at 72 h, 5 µM: 94 ± 10%
  viability at 72 h, 10 µM: 97 ± 9%
  viability at 72 h, 25 µM: 93 ± 17%
  viability at 72 h, 50 µM: 94 ± 10%
  IC50 at 72 h: > 100 µM
Juvenile and adult worms
  time to parasite death: ≤ 96 h
NTS; NTS, 4 h, 10 μM
  Percentage of effect: 21.15%
NTS; NTS, 4 h, 20 μM
  Percentage of effect: 23.08%
NTS; NTS, 24 h, 10 μM
  Percentage of effect: 41.07%
NTS; NTS, 24 h, 20 μM
  Percentage of effect: 41.07%
NTS; NTS, 48 h, 10 μM
  Percentage of effect: 34.69%
NTS; NTS, 48 h, 20 μM
  Percentage of effect: 57.14%
NTS; NTS, 72 h, 10 μM
  Percentage of effect: 51.02%
NTS; NTS, 72 h, 20 μM
  Percentage of effect: 59.18%
NTS; Schistosoma mansoni, 4 h, read-out: IC50 (speed of action, NTS)
  IC50: > 20 µM
NTS; Schistosoma mansoni, 24 h, read-out: IC50 (speed of action, NTS)
  IC50: > 20 µM
NTS; Schistosoma mansoni, 48 h, read-out: IC50 (speed of action, NTS)
  IC50: 17.6 µM
NTS; Schistosoma mansoni, 72 h, read-out: IC50 (speed of action, NTS)
  IC50: 11.5 µM
[5]; 1 μM
  Percentage of reduction of NTS viability, 72 h: 33.3 ± 0.0%
[5]; 10 μM
  Percentage of reduction of NTS viability, 72 h: 45.5 ± 4.3%
[5]; 20 μM
  Percentage of reduction of NTS viability, 72 h: 100 ± 0.0%
[5]
  IC50: 1.95 µM
[6]; Schistosoma mansoni, 4 h, read-out: IC50 (speed of action, juvenile forms)
  IC50: > 20 µM
[6]; Schistosoma mansoni, 24 h, read-out: IC50 (speed of action, juvenile forms)
  IC50: > 20 µM
[6]; Schistosoma mansoni, 48 h, read-out: IC50 (speed of action, juvenile forms)
  IC50: > 20 µM
[6]; Schistosoma mansoni, 72 h, read-out: IC50 (speed of action, juvenile forms)
  IC50: 17.7 µM
[6]; juvenile forms, 4 h, 1 μM
  Percentage of effect: 16.67%
[6]; juvenile forms, 4 h, 10 μM
  Percentage of effect: 23.33%
[6]; juvenile forms, 4 h, 20 μM
  Percentage of effect: 41.82%
[6]; juvenile forms, 24 h, 1 μM
  Percentage of effect: 17.24%
[6]; juvenile forms, 24 h, 10 μM
  Percentage of effect: 31.03%
[6]; juvenile forms, 24 h, 20 μM
  Percentage of effect: 38.46%
[6]; juvenile forms, 48 h, 1 μM
  Percentage of effect: 26.92%
[6]; juvenile forms, 48 h, 10 μM
  Percentage of effect: 32.69%
[6]; juvenile forms, 48 h, 20 μM
  Percentage of effect: 39.58%
[6]; juvenile forms, 72 h, 1 μM
  Percentage of effect: 31.48%
[6]; juvenile forms, 72 h, 10 μM
  Percentage of effect: 39%
[6]; juvenile forms, 72 h, 20 μM
  Percentage of effect: 56.25%
[7]
  viability at 72 h, 5 µM: 84 ± 18%
  viability at 72 h, 10 µM: 87 ± 24%
  viability at 72 h, 25 µM: 82 ± 11%
  viability at 72 h, 50 µM: 100 ± 33%
  IC50 at 72 h: > 100 µM
Adult worms [8]
  IC50: > 10 µM
[10]
  IC50: 0.52 µM
